According to patent publication US9670548B2, “Methods of diagnosing colorectal cancer by detecting FADA expression” (priority 2013, dated 2017):

How the values were obtained:
[1] = tested on: E-cadherin-mediated cellular signaling in HCT116; experiment: Subcellular fractions of HCT116, Western blot; assay type: cell-based, human; details: 50 μM inhibitor pre-incubated 1 hour, FadAc
Description: The following antibodies were used: anti-FadA monoclonal antibody (mAb) 5G11-3G8 (Xu et al., 2007), mAb anti-CDH1 (Abcam or Cell Signaling Tech), polyclonal anti-phospho-CDH1 (ECM Biosciences), mAb anti-GAPDH (Invitrogen), mAb anti-β-catenin (R&D systems), polyclonal anti-phospho-β-catenin (Cell Signaling Tech), mAb anti-LEF/TCF1 (Invitrogen), mAb anti-NFkB (Invitrogen), mAb anti-Myc (Cell Signaling Tech), mAb anti-cyclin D1 (Cell Signaling Tech), mAb anti-EGFR (Cell Signaling Tech), mAb anti-GAPDH (Cell Signaling Tech), mAb anti-PCNA (Cell Signaling Tech), polyclonal goat-anti-mouse or goat-anti-rabbit secondary antibody conjugated with horseradish peroxidase (HRP) (Pierce Biotechnology). Peptides were synthesized by Neo Group, Inc (Cambridge, Mass.). Western blot analyses were performed as previously described.
Cells were incubated with 1 mg/ml of FadAc or mFadA followed by the extraction of subcellular fractions. When indicated, 50 μM of the corresponding protein tyrosine kinase inhibitor (Genistein) and clathrin inhibitor (Pitstop2) were pre-incubated with cells for 1 hour. Membrane, cytosolic and nuclei fractions were prepared using the Compartmental Protein Extraction kit (Millipore) according to the manufacturer's instructions.

HCT116 [2] = experiment: Real-time quantitative PCR (qPCR) of HCT116; assay type: cell-based, human; details: for inhibition of activation of inflammatory genes, mRNA / inhibition of activation of tumor growth genes (Wnt, oncogenes), mRNA: FadAc, 2 hrs incubation
Experimental: (§1) Total RNA was extracted from CRC cells, xenografts, or clinical specimens. cDNA synthesis and RT-PCR were performed as previously described, using primers listed in Table 1. Data were analyzed by the ΔΔCt method and normalized to the GAPDH or Fn-specific 16S rRNA. To quantify the fadA gene copies, plasmid carrying fadA was serially diluted to 10^2-10^8 fadA copies/μl and used to generate standard curves for Ct values. The fadA gene copies in the clinical samples were calculated based on the standard curves. Each experiment was performed in triplicates and repeated at least three times.

Fn [3] = experiment: Tissue culture attachment assay, Fn on HCT116; assay type: cell-based, Fusobacterium nucleatum; details: for inhibition of Fn attachment of HCT116: MOI 50, 1 hr
Experimental: (§2) Cells were seeded in 24-well or 96-well plates at 8×10^4 cells or 2.5×10^4 cells per well in the growth medium and grown to 100% confluent. Bacteria were added to the cells at a multiplicity of infection (MOI) of 50. Following 1 hr incubation at 37° C. in 5% CO2, the monolayers were washed 3 times with D-PBS, pH 7.1, supplemented with Ca^2+ and Mg^2+. Cells were lyzed with water for 20 min at 37° C. Serial dilutions of the lysates were plated onto blood agar plates to enumerate the total cell-associated bacteria. For invasion assays, the bacteria were incubated with the monolayers at 37° C. for 4 hrs, followed by washes with PBS. Fresh media containing 300 μg/ml gentamicin and 200 μg/ml metronidazole were added to the monolayers and incubated for an additional hour to kill extracellular bacteria. The cells were then washed and lyzed with water as described above. The levels of attachment and invasion were expressed as the percentage of bacteria recovered following cell lysis relative to the total number of bacteria initially added. Each experiment was performed in triplicates and repeated at least twice.

Fn [4] = experiment: Tissue culture invasion assay, Fn into HCT116; assay type: cell-based, Fusobacterium nucleatum; details: for inhibition of Fn invasion of HCT116: MOI 50, 4 hrs
Experimental: as §2

HCT116 [5] = experiment: Cell proliferation assay, HCT116; assay type: cell-based, human; details: bacteria at MOI 1000:1
Experimental: (§3) CRC cells were seeded in 24-well plates at 1×10^4 cells per well in the growth medium. Cells were untreated, or incubated with FadAc or peptides at indicated concentration, or with bacteria at a multiplicity of infection (MOI) of 1000:1. Cell numbers were counted at 24-hour intervals using a hemocytometer. Each experiment was performed in triplicates and repeated at least twice.

[6] = tested on: RKO cells transfected with CDH1; experiment: Cell proliferation assay, RKO cells transfected with CDH1; assay type: cell-based, human; details: bacteria at MOI 1000:1
Experimental: CDH1 transfections were performed as previously described. siRNA assays were performed using the FlexiTube siRNA anti-CDH1 or anti-beta-catenin reagent and All Stars FlexiTube Control siRNA from Qiagen (Valencia, Calif.) according the manufacturer's instructions.
as §3

[7] = tested on: Fusobacterium nucleatum (Fn); experiment: Fn attachment of endothelial cells; assay type: cell-based; details: FIG. 8
Experimental: as §2

[8] = tested on: Fusobacterium nucleatum (Fn); experiment: Fn invasion of endothelial cells; assay type: cell-based; details: FIG. 8
Experimental: as §2

HCT116 xenografts [9] = experiment: HCT116 xenograft tumor growth in nude mice; assay type: in vivo; details: 0.01 μmol peptide with FadAc
Experimental: (§4) The animal protocol was approved by the Case Western Reserve University Institutional Animal Care and Use Committee. An inoculum of 5×10^6 cells were injected s.c. and bilaterally into 4- to 6-week-old female nude mice (5 per group) as previously described. The mice were randomized to receive one of the following: FadAc or mFadA (each at 80 μg), BSA (0.01 μmol, i.e., 660 μg), or peptide (0.01 μmol), or bacteria at 1×10^7 cfu, at each inoculation site.

Fn [10] = experiment: Immunohistochemical staining of Fn-infected HCT116 xenografts; assay type: in vivo, Fusobacterium nucleatum; details: wild-type Fn injected into HCT116 xenografts
Experimental: Immunofluorescent staining of cells was performed as previously described. Mouse anti-β-catenin mAb and Alexa Fluor 634-conjugated goat anti-mouse polyclonal antibodies were used. IHC analysis of xenograft tumors were performed as previously described, using rabbit anti-Fn polyclonal antibodies. Pre-immune serum from the same rabbit was used as control.
as §4

HCT116 xenografts [11] = experiment: qPCR of HCT116 xenografts; assay type: in vivo, mice; details: FadAc or wild-type Fn
Experimental: as §4, §1

| Molecule | effect of inhibitor on CRT activation (β-catenin translocation, LEF/TCF, Wnt and oncogenes) [1] | effect of inhibitor on E-cadherin phosphorylation [1] | effect of inhibitor on FadA and E-cadherin internalization [1] | effect of inhibitor on FadA binding to the membranes [1] | inhibition of activation of inflammatory genes, mRNA (HCT116 [2]) | inhibition of activation of tumor growth genes (Wnt, oncogenes), mRNA (HCT116 [2]) | inhibition of Fn attachment of HCT116 (Fn [3]) | inhibition of Fn invasion of HCT116 (Fn [4]) | effect of inhibitor on NF kappaB activation [1] | effect on Fn-stimulated expression of NF-kappaB and cytokines IL-6, 8, and 18 (HCT116 [2]; wild type Fn) | inhibition of Fn-stimulated HCT116 growth (HCT116 [5]) | suppression of Fn growth stimulation of CDH1-transfected RKO cells [6] | block of Fn attachment of endothelial cells [7] | block of Fn invasion of endothelial cells [8] | effect of peptide on FadAc-stimulated tumor growth (HCT116 xenografts [9]) | prevention of Fn invasion into tumor tissues (Fn [10]) | inhibition of stimulation of tumor growth genes and inflammatory genes in xenografts (HCT116 xenografts [11]) | concentration of maximum inhibition of Fn attachment of HCT116 (Fn [3]) | concentration of maximum inhibition of Fn invasion of HCT116 (Fn [4]) |
| --- | --- | --- | --- | --- | --- | --- | --- | --- | --- | --- | --- | --- | --- | --- | --- | --- | --- | --- | --- |
| O=c1c(-c2ccc(O)cc2)coc2cc(O)cc(O)c12 [Genistein] | abolished | prevented | prevented | abolished | inhibited | inhibited | – | – | – | – | – | – | – | – | – | – | – | – | – |
| O=C1NC(=NS(=O)(=O)c2cccc3ccccc23)S/C1=C\c1ccc(Br)cc1 [Pitstop2] | unaffected | did not affect | inhibited | did not affect | only inhibited the inflammatory genes | not | without affecting attachment | prevented | no NF kappaB activation was observed | abolished | – | – | – | – | – | – | – | – | – |
| ASANWTIQYND [inhibitory peptide] | – | – | – | – | – | – | minimum required | minimum required | – | – | inhibited | diminished | block | block | No increase was detected | prevented | inhibited | – | – |
| GST-EC5 fusion protein: purified GST fusion protein carrying the EC5 domain of E-cadherin (protein, left off: a dimerising Fc or GST, purified GST fusion protein carrying the EC5 domain of E-cadherin) IPEPRTIFFCERNPKPQVINIIDADLPPNTSPFTAELTHGASANWTIQYNDPTQESIILKPKMALEVGDYKINLKLMDNQNKDQVTTLEVSVCDCEGAAGVCRK | – | – | – | – | – | – | inhibited by purified GST-EC5 fusion protein in a dose-dependent manner | inhibited by purified GST-EC5 fusion protein in a dose-dependent manner | – | – | inhibited | diminished | – | – | – | – | – | 0.1 µM | 0.1 µM |
